Molecular target: T1, DmSLIMP/DmSerRS2α (Drosophila melanogaster, UniProt Q9VF85)
T1 construct: gene SerRS-m; co-expressed in E. coli BL21(DE3) from bicistronic pOPINFS; C-terminal 6His on DmSerRS2α, C-terminal Strep II on DmSLIMP; heterodimer; HisTrap; with Seryl-tRNA synthetase-like insect mitochondrial protein
T1 sequence (Q9VF85 22-417): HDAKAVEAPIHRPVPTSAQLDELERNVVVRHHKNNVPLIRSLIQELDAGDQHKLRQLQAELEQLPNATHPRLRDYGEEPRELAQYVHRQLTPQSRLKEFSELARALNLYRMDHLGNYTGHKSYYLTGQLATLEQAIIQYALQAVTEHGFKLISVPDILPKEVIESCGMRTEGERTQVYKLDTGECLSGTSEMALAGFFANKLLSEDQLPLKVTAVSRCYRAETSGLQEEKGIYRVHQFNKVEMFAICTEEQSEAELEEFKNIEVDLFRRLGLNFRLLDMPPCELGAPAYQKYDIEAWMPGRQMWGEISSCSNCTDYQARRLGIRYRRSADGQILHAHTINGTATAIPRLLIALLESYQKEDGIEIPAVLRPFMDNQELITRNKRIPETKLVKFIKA
T1 sequence (Q95T19 1-464 partner): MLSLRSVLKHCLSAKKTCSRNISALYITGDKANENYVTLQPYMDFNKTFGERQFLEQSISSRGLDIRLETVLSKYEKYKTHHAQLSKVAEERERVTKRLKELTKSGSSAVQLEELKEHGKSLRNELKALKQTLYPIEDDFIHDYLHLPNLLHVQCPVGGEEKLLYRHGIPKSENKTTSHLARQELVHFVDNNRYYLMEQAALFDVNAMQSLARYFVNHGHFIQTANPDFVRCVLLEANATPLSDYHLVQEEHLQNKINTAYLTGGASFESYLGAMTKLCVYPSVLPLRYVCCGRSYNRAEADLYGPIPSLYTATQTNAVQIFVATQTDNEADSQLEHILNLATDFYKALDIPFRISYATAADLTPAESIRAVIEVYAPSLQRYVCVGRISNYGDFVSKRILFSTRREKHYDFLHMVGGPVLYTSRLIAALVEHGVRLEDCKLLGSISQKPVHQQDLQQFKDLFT
Experiment: radiometric tRNA aminoacylation, scintillation counting
Assay type: biochemical
Details: co-substrates ATP and in vitro transcribed Drosophila mt-tRNA-Ser(GCU); Mg2+; labelled compound; pH 7.2, 25 °C (mutant SerRS and tRNA assays pH 7.5)

## N[C@@H](CO)C(=O)O [serine]
  radiometric tRNA aminoacylation, scintillation counting: In all cases the aminoacylation activity of DmSLIMP/DmSerRS2α was not affected by the presence of the LON domain

Reference: article PMC10570016, “Domain collapse and active site ablation generate a widespread animal mitochondrial seryl-tRNA synthetase” (Nucleic Acids Research, 2023)
